The text below walks through data of US12630532B2, “Indole-substituted quinolines and their combination with Plk1 inhibitors for the treatment of cancer” (UNIVERSITY OF KENTUCKY RESEARCH FOUNDATION, priority 2021, dated 2026).

In series [1] the test system is mitochondrial ETC complex I. The series is described as follows: Mitochondrial ETC complex activity measurements using PMP-permeabilized cells. The series is classed as cell-based. As to conditions: pyruvate substrate. The method, then: Mitochondrial ETC complex activity measurements were taken using the Agilent Seahorse Assay with XF PMP (Agilent, Santa Clara, CA) following manufacturer's instructions. Adherent monolayer cells were gently washed with mitochondrial assay solution (MAS) (220 mM mannitol, 70 mM sucrose, 10 mM KH2PO4, 5 mM MgCl2, 2 mM HEPES, 1 mM EGTA, and 0.2% (w/v) fatty acid free BSA) and cell growth media was replaced with MAS supplemented with 4 mM adenosine diphosphate (ADP), 10 mM pyruvate, and 1 nM PMP. Following calibration, the assay was immediately performed by measuring baseline with two cycles of 0.5 min mixing, 0.5 min waiting, and 2 min measuring. After baseline measurements, sequential injections of DMSO, compounds of interest or 2 μM rotenone, 10 mM succinate, 2 μM antimycin A, and a combination of 10 mM ascorbate and 100 μM TMPD were also performed with each followed by two cycles of 0.5 min mixing, 0.5 min waiting, and 2 min measuring. Data were then normalized to cell counts using the Biotek Cytation 1 (BioTek Instruments, Winooski, VT, USA).

In series [2] the test system is AMPK. The series is described as follows: AMPK activation (western blotting, pAMPK/pACC) in LS174T cells. The series is classed as cell-based. The method, then: (§1) Western blotting were performed according to previous procedures (25). Cells were split into 12-well plates. After 24 hours, compounds at indicated final concentrations were added to each well for another 24 hours unless otherwise noted. DMSO was used as a control. Cells were lysed in the appropriate volume of lysis buffer: 50 mM HEPES, 100 mM NaCl, 2 mM EDTA, 1% (v/v) glycerol, 50 mM NaF, 1 mM Na3VO4, 1% (v/v) Triton X-100, with protease inhibitors. Cell lysates were centrifuged, and supernatants were mixed with 6× protein loading buffer and boiled. The obtained samples were analyzed with standard western blotting methods with indicated antibodies.
(A western blot detects proteins with antibodies after separation by electrophoresis.)

The test system of series [3] is LS174T cells. The series is described as follows: Cell proliferation inhibition assay (5 days, cell counting). The series is classed as cell-based. As for the experimental part:
Cell proliferation inhibition assays were done following a previous report (32). Cancer cells were seeded into 24-well plates at a density of 20,000 cells per well in 1 mL of culture medium and were cultured overnight at 37° C. Compounds and the vehicle control (DMSO) were added to the cells. After 5 days, the medium was removed, and 100 μL of trypsin was added. The cells were resuspended in phosphate-buffered saline (PBS) and were counted by Vi-CELL XR 2.03 (Beckman Coulter, Inc. USA). The ratio R of the number of viable cells in the compound treatment group to the number of viable cells in DMSO treatment group was taken as relative growth, and the percentage growth inhibition was calculated as (1−R)*100.

Series [4] concerns mitochondrial ETC (electron transport chain). The series is described as follows: Seahorse assay (OCR) in Beas-2B cells. The series is classed as cell-based. The method, then:
Seahorse assays were carried out following a published procedure (25). Briefly, 2.5×10^4 cells in 80 μL of medium were seeded in XF96 Cell Culture microplate for all experiments. On the next day, cell culture media were replaced with Seahorse XF modified media. Cells were treated with 1 μM of oligomycin A, 1.0 μM FCCP and mixture of 1.0 μM of rotenone and 1.0 μM of antimycin A in standard mitochondrial stress test conditions. To determine the uncoupler effects, FCCP was replaced with an equal volume of DMSO, or a compound to be tested in DMSO solution.

Series [5] concerns Wnt signaling target genes c-Myc and axin2. The series is described as follows: Western blotting of Wnt signaling target genes in LS174T cells. The format is cell-based. As to conditions: 24 hours. The method, then:
as §1

Series [6] relates to Plk1. Kind of series: Western blotting of cell signaling pathways in LS174T cells. The format is cell-based. As to conditions: LS174T colon cancer cells, 24 hours. The method, then: as §1
In series [7] the test system is LS174T colon cancer cell xenografts. Kind of series: In vivo antineoplastic activity and gross toxicity in LS174T xenografts. As for the experimental part:
Mouse studies were carried out with approval from the Institutional Animal Care and Use Committee of the University of Kentucky (2020-3531). All methods were performed in accordance with the relevant guidelines and regulations according to protocols. […] After tumors were established, mice were randomized according to tumor volume and divided into groups for treatments (five mice in each group, two tumors on each mouse).
The in vivo evaluation of ISQ-1 and BI2536 followed the approved protocol. After tumors were established, ISQ-1 was formulated in a mixture of Tween-80 (5%), DMSO (10%), PEG400 (25%) and PBS (60%) and was intraperitoneally administered to the ISQ-1 group at a daily dose of 20 mg/kg mouse body weight. The first day of treatment was set as day 0. At days 0, 4, and 7, BI2536 dissolved in 0.1 N HCl and then diluted 5-fold using 0.9% NaCl was given via gavage to the B12536 group. Mice in combination therapy group were treated with both ISQ-1 and BI2536 following aforementioned dosing schedules. At day 11 treatment was ceased and mice were sacrificed. Tumors and mouse weights were measured, and tumor volumes were calculated as Length×width^2/2.
Major biological assays were performed at least twice. Data were shown as mean SEM. For the mice study, five mice with two tumors on the lower flanks of each mouse were used in each treatment group. Sizes of the two tumors from each mouse were averaged, standardized by the tumor size on day 0, and log-transformed. ANOVA with Tukey's HSD test was used to compare the tumor size at the end of the study (day 11) between the combination therapy of ISQ-1 and B12536 and each single compound as well as the control. The equal variance assumption of ANOVA was assessed by Bartlett's test. All statistical studies were overseen in collaboration with a statistician in the University of Kentucky's Markey Cancer Center.

For series [8] the following is noted: cited from earlier work.

As usually defined, the inhibition is the relative decrease from the control value, in per cent. A high value points to a response far below the control. For `Cn1cc(-c2cc3ccc(N4CCC(C#N)CC4)cc3nc2N)c2ccccc21` [ISQ-7, 1-(2-Amino-3-(1-methyl-1H-indol-3-yl)quinolin-7-yl)piperidine-4-carbonitrile], the “ETC complex I inhibition (pyruvate/NADH-linked respiration)” value in series [1] is listed as “inhibited complex I”. The AMPK activation result in series [2] was “activated AMPK”. For the same molecule, the “percentage inhibition of LS174T cell proliferation at 500 nM, compared among ISQs (FIG. 2B)” value in series [3] (500 nM) is given as “comparable to the N,N-dimethylamino group in ISQ-1”. For the same molecule, the inhibition at 0.062 µM in series [3] (Homo sapiens, LS174T, 120 h, 62 nM, 5 days) was 19 ± 5.5%. The molecule further registered an inhibition at 0.125 µM in series [3] (Homo sapiens, LS174T, 120 h, 125 nM, 5 days) of 89 ± 0.2%. The same molecule came in with an inhibition at 0.25 µM in series [3] (Homo sapiens, LS174T, 120 h, 250 nM, 5 days) of 98 ± 0.6%. In series [3] (Homo sapiens, LS174T, 120 h, 500 nM, 5 days), this molecule returned an inhibition at 0.5 µM of 97 ± 0.7%. For the same molecule, the IC50 in series [3] (Homo sapiens, dose response studies, LS174T, read-out: IC50 values in cell proliferation assays) was approximately 100 nM. In series [4], the “ETC complex V inhibition (oligomycin replaced with compound)” value was “did not inhibit ETC complex V” and the “uncoupler effect (FCCP replaced with compound)” value is on record as “no uncouplers”. The “effect on Wnt signaling target genes c-Myc and axin2” value in series [5] is recorded as “strongly inhibited”. The “Plk1 expression upon drug treatment” value in series [6] was “induced”.
In the case of `CC[C@@H]1C(=O)N(C)c2cnc(Nc3ccc(C(=O)NC4CCN(C)CC4)cc3OC)nc2N1C1CCCC1` [BI2536, reference compound], the “gross toxicities on the basis of mouse weight measurements” value in series [7] (mouse, in vivo) is listed as “No gross toxicities”. In addition, in series [7] (nude mice, ISQ-1 20 mg/kg daily i.p., BI2536 30 mg/kg twice a week by gavage, day 11), the “tumor growth of LS174T xenografts” value was “inhibited tumor growth but did not induce tumor regression”. Further, in series [8] (Phase II), the “antitumor activity in Phase II clinical trials” value was “only limited antitumor activity”. Also, the “safety in phase I clinical trials” value in series [8] (phase I) was “safe”.
